# According to patent US20200131176A1, “SELECTIVE INHIBITORS OF CLINICALLY IMPORTANT MUTANTS OF THE EGFR TYROSINE KINASE” (CS Pharmatech Limited, priority 2017, published 2020):
# Where “and” joins values, the source holds several entries; their conditions need not be identical. Equal values may be shown once. Read-outs that look alike come from different tables or passages of the source.
# Legend:
# [1] = tested on: PC-9 cells; assay: PC-9 growth inhibition assay (cell proliferation, CellTiter-Glo, 72 h); assay type: cell-based, human; conditions: cellular proliferation, PC9 cells, single mutant EGFR
# Protocol: (§1) Then incubate the flasks at 37° C. until the cells detach.
# (§2) Test compounds were dissolved in DMSO at 30 mM.
# (§3) The final concentration was 1,000 cells/well. Add medium only as low control.
# (§4) After 72 hours incubation, remove the plates from incubator and equilibrate at room temperature for 15 minutes. Incubate the CellTiter Glo reagents (Promega, G9243) at 37° C. before the experiment. The buffer was equilibrated to room temperature and used to dissolve the substrate. To determine the cell viability, add 40 μL of CellTiter-Glo reagent into each well to be detected (at 1:1 to culture medium). Then the place the plates at room temperature for 30 min followed by read on EnSpire (PerkinElmer).
# (§5) For estimation of IC50, the luminescence readout are transformed to % Inhibition by applying the following equation:
# [2] = tested on: H1975 cells; assay: H1975 inhibition assay (cell proliferation, CellTiter-Glo, 72 h); assay type: cell-based, human; conditions: cellular proliferation, double mutant EGFR
# Protocol: H1975 Inhibition Assay (Cell Proliferation).
# as §2, §3, §4, §5
# [3] = tested on: A431 cells; assay: A431 inhibition assay (cell proliferation, CellTiter-Glo, 72 h); assay type: cell-based, human
# Protocol: as §1, §2, §3, §4, §5
# [4] = target: T1, Exon 19 deletion EGFR (activating single mutant) in PC-9 cells (Homo sapiens, UniProt P00533, DEL746-750); assay: Exon 19 deletion EGFR PC-9 cellular autophosphorylation assay (p-EGFR ELISA); assay type: cell-based; conditions: PC9, 2 h treatment, read-out: SM (PC9) IC50
# T1 construct: cellular phosphorylation of endogenous p-EGFR; host or cells: PC9 (PC-9) human lung cell line
# Protocol: The human lung cell line PC9 (Exon 19 deletion EGFR) were obtained from the American type Culture Collection. […] Cells were grown in a humidified incubator at 37° C. with 5% CO2, Assays to measure cellular phosphorylation of endogenous p-EGFR in cell Iysates were carried out according to the protocol described in the R&D Systems DuoSet IC Human Phospho-EGF R ELISA (R&D Systems catalogue number # DYCI095). 40 μL of cells were seeded (10000 cells/well) in growth medium in Coming black, clear-bottomed 384-well plates and incubated at 37° C. with 5% CO2 overnight. […] Plates were incubated for a further 2 h, then following aspiration of medium, 40 μL× lysis buffer is added to each well. Greiner black high bind 384 well plates were coated with capture antibody and then blocked with 3% BSA. Following removal of block, 15 μL of lysate are transferred to the Greiner black high bind 384 well plates and incubated for 2 hours. Following aspiration and washing of the plates with PBS, 20 μL of detection antibody were added and incubated for 2 hours. […] The data obtained with each compound are exported into a suitable software package (such as Origin) to perform curve fitting analysis.
# [5] = target: T2, IGF-1R (Homo sapiens, UniProt P08069); assay: IGF-1R inhibition assay (Caliper mobility shift); assay type: biochemical; conditions: enzyme assay
# T2 construct: purchased CARNA BIOSCIENCE 08-141
# Protocol: Test compound was dissolved in DMSO at 30 mM. […] 20 nL of these compounds DMSO dilutes were dispensed into a new 384-well assay plate by Echo 550. […] 15 μL of kinase assay buffer containing IGF-1R protein and substrate was transferred to assay plate and incubate at RT for 30 minutes. Kinase assay buffer supplemented with substrate peptides was employed as low control to monitor the background. 40 μM ATP was prepared in kinase assay buffer containing and 5 μL of ATP solution was added to each well to start the reaction. The assay plate was incubated at 25° C. for 180 minutes and the reaction was stopped by adding 40 μL of 0.5 M EDTA.
# Phosphorylated fluorescent-tagged peptides were differentiated from non-phosphorylated peptides by separating using Caliper EZ Reader II and the detection was directly converted to conversion ratio.
# [6] = target: T3, INSR (Homo sapiens, UniProt P06213); assay: INSR inhibition assay (Caliper mobility shift); assay type: biochemical; conditions: enzyme assay
# T3 construct: purchased CARNA BIOSCIENCE 08-142
# Protocol: Test compound was dissolved in DMSO at 30 mM. […] 20 nL of these compounds DMSO dilutes were dispensed into a new 384-well assay plate by Echo 550. […] 15 μL of kinase assay buffer containing INSR protein and substrate was transferred to assay plate and incubate at RT for 30 minutes. Kinase assay buffer supplemented with substrate peptides was employed as low control to monitor the background. 40 μM ATP was prepared in kinase assay buffer containing and 5 μL of ATP solution was added to each well to start the reaction. The assay plate was incubated at 25° C. for 180 minutes and the reaction was stopped by adding 40 μL of 0.5 M EDTA.
# The result was analyzed in the same manner as IGF-IR.
# [7] = tested on: H1975 NSCLC cells xenograft (EGFR L858R/T790M double mutant); assay: EGFR L858R/T790M double-mutant H1975 xenograft model; assay type: in vivo, nu/nu mice; conditions: 5 mg/kg, day 10 after dosing
# Protocol: Appropriately transformed cells, either from ATCC cell lines, known to carry the oncogene of interest, or from deliberate transfections, are suspended in appropriate media, and 5×10^6 or 1×10^7 cells are injected into the flank of nu/nu mice. Alternatively trochar placement of fragments of in vivo passaged tumors, usually about 1 mm^3 can be used to initiate the tumors. When tumors have reached an appropriate size for the experiment, usually in the 100-300 mg range, animals are randomized into matched groups of 6-10 mice, and tumor size and given vehicle or test article by perioral gavage once or twice daily. Tumor volumes are determined using calipers. The percentage increase in the volume of a xenograft tumor on day n versus day 0 (the day when dosing of the test compound began) is calculated as (tumor volume on day n−tumor volume on day 0/tumor volume on day 0)×100. The mean percentage of tumor growth inhibition in each drug-treated group relative to the vehicle-treated group is calculated as (1−mean percent increase of tumor volume in the drug-treated group/mean percent increase of the tumor volume in the vehicle-treated group)×100. Statistical significance is evaluated using a one-tailed t test.
# Tumor size was measured on day 10 after dosing.
# [8] = target: T4, L858R/T790M double mutant EGFR in H1975 cells (Homo sapiens, UniProt P00533, L858R/T790M); assay: L858R/T790M double mutant H1975 autophosphorylation inhibition assay (ELISA); assay type: cell-based; conditions: cellular EGFR autophosphorylation, H1975, 2 h treatment; read-out: DM (H1975) IC50
# T4 construct: endogenous in cells; host or cells: H1975 cells
# [9] = Mouse in vivo PK study; conditions: male CD1 mice, 1 mg/kg IV; for F: 10 mg/kg PO; for AUC / clearance / half-life: mouse, plasma; for half-life: read-out: T1/2 (IV) (converted)
# Protocol: To determine the drug concentration in plasma of the compounds of the present disclosure following intravenous and oral administration in male CD 1 Mice, pharmacokinetic profile and PK parameters were obtained.
# Test animals: healthy male CD1 mice (body weight 20-30 g, 18 mice, free access to food and water), provided by Sibeifu laboratory. […]
# Samples collection: the healthy animals were used, weighed the bodyweight and marked at tail and cage card prior to dosing. Blood samples (0.03 mL per time point) were collected from dorsal metatarsal vein at 0.083, 0.25, 0.5, 1, 2, 4, 8, 24 h post dose for IV group and at 0.25, 0.5, 1, 2, 4, 8, 24 h post dose for PO group, the terminal time point was collected from heart (˜0.3 mL). The blood samples were put into the tube with heparin-Na coated and then put on the cold box, centrifuged at 4° C. 4000 g, 5 minutes immediately after collecting all samples per time point to get plasma. The plasma samples were stored in a freezer at −75±15° C. prior to analysis.
# The drug concentration was determined by LC/MS/MS method, and the PK parameters were observed as follows.
# [10] = Mouse in vivo PK study; conditions: mouse, plasma, male CD1 mice, 10 mg/kg PO; for half-life: read-out: T1/2 (PO) (converted)
# [11] = target: hERG channel (HEK 293 cell line stably expressing hERG channel) (Homo sapiens, UniProt Q12809); assay: cell-based
# [12] = target: Wild type EGFR in A431 cells (Homo sapiens, UniProt P00533); conditions: WT (A431) IC50 nM, cellular EGFR autophosphorylation, A431, 2 h treatment then EGF stimulation 10 min
# [13] = NCI-H1975 cells, read-out: NCI-H1975 IC50 (nM) DM
# [14] = cellular proliferation, wild type EGFR, read-out: A431 IC50 (nM) WT
# [15] = Homo sapiens, NCI-H1975, 72 h, read-out: NCI-H1975 IC50 (nM) DM
# [16] = Homo sapiens, PC-9, 72 h, read-out: PC9 IC50 (nM) SM
# [17] = Homo sapiens, A-431, 72 h, cellular proliferation, wild type EGFR, read-out: A431 IC50 (nM) WT
# T3 sequence (P06213 1005-1382 limits assumed): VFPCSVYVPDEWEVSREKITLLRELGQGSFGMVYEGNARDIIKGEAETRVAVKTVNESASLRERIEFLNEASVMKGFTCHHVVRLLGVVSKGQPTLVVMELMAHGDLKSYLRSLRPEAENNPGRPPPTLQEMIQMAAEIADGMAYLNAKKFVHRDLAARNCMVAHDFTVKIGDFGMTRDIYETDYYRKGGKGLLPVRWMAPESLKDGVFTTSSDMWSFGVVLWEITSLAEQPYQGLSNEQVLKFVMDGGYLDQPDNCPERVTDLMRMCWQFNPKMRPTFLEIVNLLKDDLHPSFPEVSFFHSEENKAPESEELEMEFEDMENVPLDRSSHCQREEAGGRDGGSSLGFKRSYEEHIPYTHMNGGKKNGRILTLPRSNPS
# Wild type EGFR in A431 cells, sequence (P00533 25-1210): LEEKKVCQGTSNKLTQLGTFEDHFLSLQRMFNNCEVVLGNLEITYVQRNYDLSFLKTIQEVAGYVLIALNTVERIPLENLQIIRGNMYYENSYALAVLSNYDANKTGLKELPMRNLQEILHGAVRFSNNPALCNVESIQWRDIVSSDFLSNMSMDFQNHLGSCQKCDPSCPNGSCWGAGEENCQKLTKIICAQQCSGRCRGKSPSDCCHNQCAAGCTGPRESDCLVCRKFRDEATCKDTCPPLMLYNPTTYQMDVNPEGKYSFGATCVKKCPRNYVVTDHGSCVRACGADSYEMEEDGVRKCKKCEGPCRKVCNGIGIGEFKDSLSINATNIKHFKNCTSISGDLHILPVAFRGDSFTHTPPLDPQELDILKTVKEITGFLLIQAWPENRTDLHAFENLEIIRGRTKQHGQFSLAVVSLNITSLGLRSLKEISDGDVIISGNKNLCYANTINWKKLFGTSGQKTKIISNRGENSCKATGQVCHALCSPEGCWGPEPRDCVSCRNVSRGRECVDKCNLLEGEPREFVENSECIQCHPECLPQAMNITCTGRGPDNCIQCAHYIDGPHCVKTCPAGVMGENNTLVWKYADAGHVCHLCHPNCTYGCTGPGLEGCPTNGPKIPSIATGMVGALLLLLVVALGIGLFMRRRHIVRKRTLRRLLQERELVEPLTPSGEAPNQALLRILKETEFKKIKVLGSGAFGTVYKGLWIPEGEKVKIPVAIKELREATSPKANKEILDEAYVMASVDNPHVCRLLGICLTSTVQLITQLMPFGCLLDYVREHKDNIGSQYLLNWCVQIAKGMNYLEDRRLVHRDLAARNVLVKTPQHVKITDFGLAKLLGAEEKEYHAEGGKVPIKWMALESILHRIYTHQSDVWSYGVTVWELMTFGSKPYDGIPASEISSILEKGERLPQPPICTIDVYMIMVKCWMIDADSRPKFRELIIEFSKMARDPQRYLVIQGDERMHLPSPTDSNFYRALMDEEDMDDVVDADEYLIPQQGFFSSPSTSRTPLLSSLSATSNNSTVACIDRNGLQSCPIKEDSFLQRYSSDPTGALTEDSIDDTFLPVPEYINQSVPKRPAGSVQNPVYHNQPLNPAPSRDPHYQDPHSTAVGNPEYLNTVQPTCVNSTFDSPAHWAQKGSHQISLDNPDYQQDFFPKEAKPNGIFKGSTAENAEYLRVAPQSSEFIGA
# hERG channel (HEK 293 cell line stably expressing hERG channel), sequence (Q12809 whole entry): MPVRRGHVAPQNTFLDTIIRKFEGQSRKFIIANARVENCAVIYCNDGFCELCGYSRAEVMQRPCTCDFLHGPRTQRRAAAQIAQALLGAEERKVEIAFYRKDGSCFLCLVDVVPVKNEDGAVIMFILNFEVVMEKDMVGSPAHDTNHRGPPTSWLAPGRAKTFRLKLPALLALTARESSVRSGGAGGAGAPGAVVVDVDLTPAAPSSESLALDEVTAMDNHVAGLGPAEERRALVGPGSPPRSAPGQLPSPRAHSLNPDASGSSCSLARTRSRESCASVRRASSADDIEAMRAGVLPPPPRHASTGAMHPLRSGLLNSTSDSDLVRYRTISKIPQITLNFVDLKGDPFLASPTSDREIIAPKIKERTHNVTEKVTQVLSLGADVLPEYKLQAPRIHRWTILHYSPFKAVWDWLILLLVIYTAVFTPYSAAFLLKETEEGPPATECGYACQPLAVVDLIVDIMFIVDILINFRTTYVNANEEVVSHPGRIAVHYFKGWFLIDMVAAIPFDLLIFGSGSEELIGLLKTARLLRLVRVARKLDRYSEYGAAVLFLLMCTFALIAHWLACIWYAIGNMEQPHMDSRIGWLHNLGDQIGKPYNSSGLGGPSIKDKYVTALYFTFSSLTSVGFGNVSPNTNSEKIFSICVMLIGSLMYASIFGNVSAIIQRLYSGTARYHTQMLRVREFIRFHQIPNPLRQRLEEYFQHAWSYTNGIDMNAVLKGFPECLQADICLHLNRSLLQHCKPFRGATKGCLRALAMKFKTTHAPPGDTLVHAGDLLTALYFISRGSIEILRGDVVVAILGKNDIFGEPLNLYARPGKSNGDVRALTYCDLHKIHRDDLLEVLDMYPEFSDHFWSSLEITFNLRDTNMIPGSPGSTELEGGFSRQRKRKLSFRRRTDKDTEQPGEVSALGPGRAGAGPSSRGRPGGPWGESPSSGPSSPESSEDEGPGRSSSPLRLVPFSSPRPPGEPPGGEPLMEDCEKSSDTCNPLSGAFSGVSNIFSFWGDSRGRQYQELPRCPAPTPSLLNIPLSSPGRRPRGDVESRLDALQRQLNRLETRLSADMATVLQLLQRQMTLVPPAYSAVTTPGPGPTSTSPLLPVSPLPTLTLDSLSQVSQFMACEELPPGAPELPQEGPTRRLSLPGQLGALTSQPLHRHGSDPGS
# T1 sequence (P00533 with tags, fused parts or gaps DEL746-750): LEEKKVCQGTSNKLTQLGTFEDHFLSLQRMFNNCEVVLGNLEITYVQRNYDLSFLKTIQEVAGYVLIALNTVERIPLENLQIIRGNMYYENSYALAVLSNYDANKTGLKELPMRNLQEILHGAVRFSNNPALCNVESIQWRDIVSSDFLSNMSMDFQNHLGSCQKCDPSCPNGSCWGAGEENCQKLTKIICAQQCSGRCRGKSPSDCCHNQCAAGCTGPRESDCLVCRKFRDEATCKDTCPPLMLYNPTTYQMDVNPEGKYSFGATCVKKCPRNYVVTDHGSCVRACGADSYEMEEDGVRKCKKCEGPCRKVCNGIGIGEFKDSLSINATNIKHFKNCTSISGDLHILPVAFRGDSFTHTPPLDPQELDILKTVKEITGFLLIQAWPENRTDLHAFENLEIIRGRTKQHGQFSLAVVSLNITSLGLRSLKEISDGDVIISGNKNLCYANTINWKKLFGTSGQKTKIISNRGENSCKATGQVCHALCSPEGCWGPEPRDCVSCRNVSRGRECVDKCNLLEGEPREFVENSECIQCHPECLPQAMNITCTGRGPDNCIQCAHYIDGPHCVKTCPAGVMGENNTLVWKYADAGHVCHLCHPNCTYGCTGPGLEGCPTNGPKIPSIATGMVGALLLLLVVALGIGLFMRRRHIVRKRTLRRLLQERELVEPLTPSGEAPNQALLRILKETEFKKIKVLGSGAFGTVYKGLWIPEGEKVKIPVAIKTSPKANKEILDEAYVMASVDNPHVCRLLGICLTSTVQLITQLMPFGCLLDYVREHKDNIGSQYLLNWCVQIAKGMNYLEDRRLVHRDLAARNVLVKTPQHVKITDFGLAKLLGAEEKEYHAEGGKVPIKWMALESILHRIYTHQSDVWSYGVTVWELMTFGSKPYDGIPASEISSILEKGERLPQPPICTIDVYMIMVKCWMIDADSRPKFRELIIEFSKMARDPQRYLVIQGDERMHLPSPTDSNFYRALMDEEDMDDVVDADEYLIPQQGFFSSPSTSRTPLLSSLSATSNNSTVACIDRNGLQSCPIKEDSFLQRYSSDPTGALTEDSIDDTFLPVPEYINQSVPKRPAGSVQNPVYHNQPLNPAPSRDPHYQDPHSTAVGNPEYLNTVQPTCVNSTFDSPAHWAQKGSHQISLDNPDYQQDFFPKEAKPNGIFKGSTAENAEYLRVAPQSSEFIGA
# T4 sequence (P00533 25-1210 T790M/L858R): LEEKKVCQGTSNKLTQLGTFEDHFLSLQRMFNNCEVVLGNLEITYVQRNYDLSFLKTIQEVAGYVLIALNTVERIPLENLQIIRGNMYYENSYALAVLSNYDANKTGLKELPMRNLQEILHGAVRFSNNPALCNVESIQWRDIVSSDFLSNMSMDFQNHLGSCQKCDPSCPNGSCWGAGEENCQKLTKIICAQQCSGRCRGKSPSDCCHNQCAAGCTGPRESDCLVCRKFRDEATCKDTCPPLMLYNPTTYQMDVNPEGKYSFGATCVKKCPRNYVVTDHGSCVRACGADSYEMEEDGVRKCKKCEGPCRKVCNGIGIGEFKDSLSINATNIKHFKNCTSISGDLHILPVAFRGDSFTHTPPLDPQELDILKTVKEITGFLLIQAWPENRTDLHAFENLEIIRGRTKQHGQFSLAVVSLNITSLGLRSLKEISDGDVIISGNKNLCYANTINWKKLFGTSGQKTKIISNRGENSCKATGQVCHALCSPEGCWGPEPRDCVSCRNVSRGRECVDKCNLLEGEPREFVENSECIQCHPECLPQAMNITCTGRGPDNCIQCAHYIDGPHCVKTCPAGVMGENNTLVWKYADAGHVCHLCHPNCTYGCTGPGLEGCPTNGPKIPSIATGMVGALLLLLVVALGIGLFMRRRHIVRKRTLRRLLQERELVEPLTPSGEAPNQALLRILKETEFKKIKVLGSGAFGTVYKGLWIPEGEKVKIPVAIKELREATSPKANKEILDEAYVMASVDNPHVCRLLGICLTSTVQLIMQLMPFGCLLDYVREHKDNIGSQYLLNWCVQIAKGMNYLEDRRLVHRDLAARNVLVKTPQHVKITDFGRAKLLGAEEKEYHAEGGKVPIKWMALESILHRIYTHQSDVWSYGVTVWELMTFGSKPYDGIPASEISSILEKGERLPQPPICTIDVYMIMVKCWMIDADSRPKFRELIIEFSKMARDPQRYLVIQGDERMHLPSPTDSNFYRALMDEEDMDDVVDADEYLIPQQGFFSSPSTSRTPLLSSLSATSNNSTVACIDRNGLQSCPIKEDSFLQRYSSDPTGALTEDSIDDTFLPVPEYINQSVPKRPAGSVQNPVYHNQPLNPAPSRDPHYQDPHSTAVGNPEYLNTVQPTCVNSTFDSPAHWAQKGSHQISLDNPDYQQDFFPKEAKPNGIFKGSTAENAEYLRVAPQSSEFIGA
Structure (SMILES),IC50 ([1]; read-out: PC9 IC50 (nM) SM),"IC50 [2, 13]",IC50 [4],IC50 [5],IC50 [6],"IC50 [2, 15]","IC50 [1, 16]","IC50 [3, 17]",IC50 [8],IC50 [11],IC50 [12],also measured
"C=CC(=O)Nc1cc(Nc2nccc(-c3c[nH]c4ccccc34)n2)c(OC)cc1N(C)CCN(C)C [AZD5104, reference compound]",1.34 nM and 2.27 nM and 1.92 nM,2.95 nM and 3.06 nM and 4.05 nM,0.00404 µM and 0.00464 µM and 0.00559 µM and 0.00583 µM,102 nM,94.8 nM,,,,,,,"IC50 ([1]; listed as AZD-5104, read-out: PC9 IC50 (nM) SM): 1.57 nM; IC50 ([2]; NCI-H1975 cells, listed as AZD-5104, read-out: NCI-H1975 IC50 (nM) DM): 3.9 nM; IC50 [3, 14]: 95.2 nM"
"C=CC(=O)Nc1cc(Nc2nccc(-c3cn(C)c4ccccc34)n2)c(OC)cc1N(C)CCN(C)C [AZD9291, reference compound]",7.43 nM,[…],,455 nM,[…],7.16 nM,,,,,,"IC50 ([2]; NCI-H1975 cells, listed as AZD-9291, read-out: NCI-H1975 IC50 (nM) DM): […]; IC50 ([3]; read-out: A431 IC50 (nM) WT, cellular proliferation, wild type EGFR): […]; TGI (tumor growth inhibition) [7]: 107.63%; Tumor Size ([7]; average ± SEM, n = 9): 123 ± 39 mm^3"
"C=CC(=O)Nc1cc(Nc2nccc(-c3cc(C#N)cc4c3cnn4C)n2)c(OC)cc1N(C)CCN(C)C [Example 9, N-(5-((4-(6-Cyano-1-methyl-1H-indazol-4-yl)pyrimidin-2-yl)amino)-2-((2-(dimethylamino)ethyl)(methyl)amino)-4-methoxyphenyl)acrylamide]",,,0.0109 µM,,,3.05 nM,7.67 nM,2200 nM,0.00571 µM,1.01 µM,140 nM,F [9]: 23.1%; AUC [9]: 0.249 µg·h/mL; clearance [9]: 4.02 L/h/kg; half-life [9]: 0.53 h; AUC [10]: 0.719 µg·h/mL; Cmax [10]: 0.159 µg/mL; half-life [10]: 3.55 h
"C=CC(=O)Nc1cc(Nc2nccc(-n3nc(NCC)c4ncccc43)n2)c(OCC(F)F)cc1N(C)CCN(C)C [Example 22, N-(4-(2,2-Difluoroethoxy)-2-((2-(dimethylamino)ethyl)(methyl)amino)-5-((4-(3-(ethylamino)-1H-pyrazolo[4,3-b]pyridin-1-yl)pyrimidin-2-yl)amino)phenyl)acrylamide]",,,0.00579 µM,5650 nM,2530 nM,3.57 nM,1.79 nM,675 nM,0.00454 µM,,35 nM,
"C=CC(=O)Nc1cc(Nc2nccc(-n3nc(N(C)C)c4ccccc43)n2)c(OC(F)F)cc1N(C)CCN(C)C [Example 18, N-(4-(Difluoromethoxy)-5-((4-(3-(dimethylamino)-1H-indazol-1-yl)pyrimidin-2-yl)amino)-2-((2-(dimethylamino)ethyl)(methyl)amino)phenyl) acrylamide]",,,0.00587 µM,1160 nM,968 nM,2.66 nM,1.79 nM,1240 nM,0.00394 µM,1.68 µM,49.1 nM,
"C=CC(=O)Nc1cc(Nc2nccc(-c3cc(C#N)cc4c3ccn4C)n2)c(OC)cc1N(C)CCN(C)C [Example 4, N-(5-((4-(6-Cyano-1-methyl-1H-indol-4-yl)pyrimidin-2-yl)amino)-2-((2-(dimethylamino)ethyl)(methyl)amino)-4-methoxyphenyl)acrylamide]",,,0.0109 µM,831 nM,965 nM,1.03 nM,1.91 nM,1460 nM,0.00198 µM,2.23 µM,69.5 nM,F [9]: 15%; AUC [9]: 0.096 µg·h/mL; clearance [9]: 11 L/h/kg; half-life [9]: 0.576 h; AUC [10]: 0.225 µg·h/mL; Cmax [10]: 0.0802 µg/mL; half-life [10]: 7.3 h
C=CC(=O)Nc1cc(Nc2nccc(-n3nc(N(C)C)c4ncccc43)n2)c(OC(F)F)cc1N(C)CCN(C)C [Example 19],,,0.0147 µM,1680 nM,1750 nM,2.82 nM,3.78 nM,953 nM,0.00535 µM,1.1 µM,92.8 nM,
"C=CC(=O)Nc1cc(Nc2nccc(-n3nc(N(C)C)c4ncccc43)n2)c(OCC(F)F)cc1N(C)CCN(C)C [Example 21, N-(4-(2,2-Difluoroethoxy)-5-((4-(3-(dimethylamino)-1H-pyrazolo[4,3-b]pyridin-1-yl)pyrimidin-2-yl)amino)-2-(N-(2-(dimethylamino)ethyl)-N-methylamino)phenyl)acrylamide]",,,0.0238 µM,1510 nM,2730 nM,6.84 nM,7.21 nM,1710 nM,0.0122 µM,3.23 µM,192 nM,
"C=CC(=O)Nc1cc(Nc2nccc(-c3cc(C#N)c4ccn(C)c4c3)n2)c(OC)cc1N(C)CCN(C)C [Example 7, N-(5-((4-(4-Cyano-1-methyl-1H-indol-6-yl)pyrimidin-2-yl)amino)-2-((2-(dimethylamino)ethyl)(methyl)amino)-4-methoxyphenyl)acrylamide]",,,0.033 µM,390 nM,621 nM,4.76 nM,7.38 nM,2170 nM,0.00826 µM,1.09 µM,302 nM,
"C=CC(=O)Nc1cc(Nc2nccc(-n3nc(N(C)C)c4ccsc43)n2)c(OC)cc1N(C)CCN(C)C [Example 5, N-(5-((4-(3-(Dimethylamino)-1H-thieno[2,3-c]pyrazol-1-yl)pyrimidin-2-yl)amino)-2-((2-(dimethylamino)ethyl)(methyl)amino)-4-methoxyphenyl) acrylamide]",2.9 nM,3.58 nM,0.0171 µM,1590 nM,2140 nM,5.86 nM,4.86 nM,1300 nM,0.00646 µM,3.49 µM,148 nM,"IC50 [3, 14]: 2210 nM"
